Reference: patent US20090042957A1, “Substituted Oxyarenes” (Bayer CropScience AG, priority 2004, published 2009)

What was measured:
Spodoptera frugiperda = Spodoptera frugiperda test (spray treatment); type: in vivo; conditions: for Kill rate in % after 7d: active compound concentration 500 g/ha, sprayed corn leaf disks (Zea mays), caterpillars
Procedure: Spodoptera frugiperda Test (Spray Treatment) [table] To produce a suitable preparation of active compound, 1 part by weight of active compound is mixed with the stated amounts of solvents and emulsifier, and the concentrate is diluted with emulsifier-containing water to the desired concentration. Disks of corn leaves (Zea mays) are sprayed with an active compound preparation of the desired concentration and, after drying, populated with caterpillars of the armyworm (Spodoptera frugiperda). After the desired period of time, the effect in % is determined. 100% means that all caterpillars have been killed; 0% means that none of the caterpillars have been killed.

log P (pH 2.3) = type: physicochemical
Tetranychus urticae = assay: Tetranychus test; OP-resistant (TETRUR spray treatment); type: in vivo; conditions: active compound concentration 100 g/ha, sprayed bean leaf disks (Phaseolus vulgaris), all stages of spider mite
Procedure: Tetranychus Test; OP-Resistant (TETRUR Spray Treatment)
To produce a suitable preparation of active compound, 1 part by weight of active compound is mixed with the stated amounts of solvents and emulsifier, and the concentrate is diluted with emulsifier-containing water to the desired concentration.
Disks of bean leaves (Phaseolus vulgaris) which are infested by all stages of the greenhouse red spider mite (Tetranychus urticae) are sprayed with an active compound preparation of the desired concentration.
After the desired period of time, the effect in % is determined. 100% means that all spider mites have been killed; 0% means that none of the spider mites have been killed.

logP (log P (pH 2.3))	Structure (SMILES)	Kill rate in % after 7d (Spodoptera frugiperda)	further results
	CCn1nnc(-c2ccc(OCCCC3CC(c4cc(OCC=C(Cl)Cl)cc(Cl)c4OC)=NO3)cc2)n1 (stereo not shown)	100%	
	COc1c(Cl)cc(OCC=C(Cl)Cl)cc1C1=NOC(CCCOc2ccc(N3CCCC3=O)cc2)C1 (stereo not shown)	100%	
	CO/N=C/c1ccc(OCCCC2CC(c3cc(OCC=C(Cl)Cl)cc(Cl)c3OC)=NO2)cc1 (stereo not shown)	100%	
	COc1c(Cl)cc(OCC=C(Cl)Cl)cc1C1=NOC(CCCOc2ccc3c(c2)CCCC3=O)C1 (stereo not shown)	100%	
	CCn1nnc(-c2ccc(OCCCC3CC(c4cc(OCC=C(Cl)Cl)cc(Cl)c4OC)=NO3)cc2)n1 (racemic) [Example I-1]		activity in Spodoptera frugiperda test (Spodoptera frugiperda; spray treatment, result in words): good activity
5.67	COc1c(Cl)cc(OCC=C(Cl)Cl)cc1-c1nnc(CCCOCc2ccccc2)s1 [2-(3-benzyloxypropyl)-5-[3-chloro-5-(3,3-dichloroallyloxy)-2-methoxyphenyl]-[1,3,4]thiadiazole]		
3.79	COc1c(Cl)cc(OCC=C(Cl)Cl)cc1C(=O)NNC(=O)CCCOCc1ccccc1 [3-chloro-5-(3,3-dichloroallyloxy)-2-methoxybenzoic acid N′-(4-benzyloxybutyryl)hydrazide]		
	COc1c(Cl)cc(OCC=C(Cl)Cl)cc1C1=NOC(CCCOc2cccc3c2OC(C)(C)C3)C1 (stereo not shown) [drawing 44]	100%	
	COc1c(Cl)cc(OCC=C(Cl)Cl)cc1C1=NOC(CCCOc2cccc3c2OC(C)(C)C3)C1 (stereo not shown) [drawing 46]		Kill rate in % after 7d (Tetranychus urticae): 90%
2.05	COc1c(Cl)cc(OCC=C(Cl)Cl)cc1C1=NC(CO)CO1 (stereo not shown) [{2-[3-chloro-5-(3,3-dichloroallyloxy)-2-methoxyphenyl]-4,5-dihydrooxazol-4-yl}methanol]		
